The experiment has as its target T1, angiotensin I-converting enzyme (Oryctolagus cuniculus, UniProt P12822).
T1 construct: angiotensin I-converting enzyme extracted from rabbit lung; from tissue; host or cells: rabbit lung
T1 sequence (P12822 34-1310): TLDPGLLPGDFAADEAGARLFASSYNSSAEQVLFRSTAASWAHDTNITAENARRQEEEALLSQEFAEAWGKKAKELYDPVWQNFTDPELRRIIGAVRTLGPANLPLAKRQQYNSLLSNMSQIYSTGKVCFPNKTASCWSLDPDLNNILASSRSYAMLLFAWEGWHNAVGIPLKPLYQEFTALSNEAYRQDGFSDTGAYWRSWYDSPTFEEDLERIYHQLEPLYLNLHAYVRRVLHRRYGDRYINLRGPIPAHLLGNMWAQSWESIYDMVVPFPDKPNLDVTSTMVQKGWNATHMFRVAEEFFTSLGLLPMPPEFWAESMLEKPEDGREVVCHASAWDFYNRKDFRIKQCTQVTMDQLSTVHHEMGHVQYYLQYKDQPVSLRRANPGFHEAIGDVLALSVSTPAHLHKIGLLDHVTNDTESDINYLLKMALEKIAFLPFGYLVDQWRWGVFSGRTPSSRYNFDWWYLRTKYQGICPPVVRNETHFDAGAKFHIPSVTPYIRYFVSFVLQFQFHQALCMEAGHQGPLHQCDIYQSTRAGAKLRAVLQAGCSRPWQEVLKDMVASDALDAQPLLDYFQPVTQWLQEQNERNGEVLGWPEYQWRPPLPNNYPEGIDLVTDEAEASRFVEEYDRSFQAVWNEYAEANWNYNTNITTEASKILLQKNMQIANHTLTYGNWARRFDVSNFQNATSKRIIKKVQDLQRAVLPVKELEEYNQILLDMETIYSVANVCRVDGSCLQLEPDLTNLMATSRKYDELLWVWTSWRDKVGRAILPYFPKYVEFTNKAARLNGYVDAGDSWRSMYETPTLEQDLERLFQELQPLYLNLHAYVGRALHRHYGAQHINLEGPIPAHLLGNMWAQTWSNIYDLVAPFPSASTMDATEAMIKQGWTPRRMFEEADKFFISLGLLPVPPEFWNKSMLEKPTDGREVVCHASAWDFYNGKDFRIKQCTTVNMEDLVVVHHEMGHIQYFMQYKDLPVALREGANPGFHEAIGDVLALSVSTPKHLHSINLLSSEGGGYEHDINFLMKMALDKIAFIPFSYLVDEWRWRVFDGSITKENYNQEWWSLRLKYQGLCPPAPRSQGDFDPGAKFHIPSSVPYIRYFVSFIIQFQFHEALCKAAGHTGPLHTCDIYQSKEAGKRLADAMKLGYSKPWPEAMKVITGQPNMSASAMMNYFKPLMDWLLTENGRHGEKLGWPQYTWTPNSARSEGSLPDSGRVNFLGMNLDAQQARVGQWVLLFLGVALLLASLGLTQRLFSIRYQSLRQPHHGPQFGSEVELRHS
In words: Inhibition of angiotensin I-converting enzyme by spectrophotometry (HHL substrate). Type of experiment: biochemical. The conditions noted are these: enzyme from rabbit lung; 5 mM HHL; pH 8.3; 37° C., 30 min.

The values below come from US4356183A, “Antihypertensive 4-thiazolidinecarboxylic acids (pyridyl derivatives)” (Santen Pharmaceutical Co., Ltd., priority 1978, dated 1982).

A word on the IC50: it is the point on the concentration scale where inhibition reaches its midpoint. Read a high IC50 as lower potency.

The molecule `C[C@H](CS)C(=O)N1C(c2ccccc2O)SC[C@H]1C(=O)O` (some centres unmarked) [Compound 50] returned an IC50 of 220 nM.

As for `COc1ccc(C2SC[C@@H](C(=O)O)N2C(=O)[C@H](C)CS)c(O)c1` (some centres unmarked) [Compound 77], it took 190 nM to reach half-maximal inhibition (IC50).
